Test results as given in PubChem BioAssay AID328 (DTP/NCI, 2004).
Where “and” joins values, the source holds several entries; their conditions need not be identical. Equal entries are not always repeated. Toxic doses and inconclusive results are not listed.

Tested on: BDF1 mice, P388 leukemia ip, median survival T/C
Assay: NCI In Vivo Anticancer Drug Screen. Data for tumor model P388 Leukemia (intraperitoneal) in B6D2F1 (BDF1) mice
Details: endpoint: median survival time, higher = longer survival
In short: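 Antitumour effect was judged in vivo: survival in drug-treated mice, normalised to that of vehicle-dosed controls, gives the reported T/C.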

[1] = dose: 25.0 mg/kg/injection, schedule: Q01DX009 (ip), vehicle: saline
[2] = dose: 50.0 mg/kg/injection, schedule: Q01DX009 (ip), vehicle: saline
[3] = dose: 50.0 mg/kg/injection, schedule: Q04DX003 (ip), vehicle: saline
[4] = dose: 100.0 mg/kg/injection, schedule: Q04DX003 (ip), vehicle: saline
[5] = dose: 12.5 mg/kg/injection, schedule: Q01DX009 (ip), vehicle: water
[6] = dose: 25.0 mg/kg/injection, schedule: Q04DX003 (ip), vehicle: water
[7] = dose: 100.0 mg/kg/injection, schedule: Q04DX003 (ip), vehicle: water
[8] = dose: 50.0 mg/kg/injection, schedule: Q01DX009 (ip), vehicle: Klucel (hydroxypropylcellulose) (HPC)
[9] = dose: 12.5 mg/kg/injection, schedule: Q01DX009 (ip), vehicle: saline with Tween-80
[10] = dose: 12.5 mg/kg/injection, schedule: Q01DX009 (ip), vehicle: saline
[11] = dose: 100.0 mg/kg/injection, schedule: Q01DX009 (ip), vehicle: saline
[12] = dose: 200.0 mg/kg/injection, schedule: Q01DX009 (ip), vehicle: saline
[13] = dose: 50.0 mg/kg/injection, schedule: Q01DX009 (ip), vehicle: saline with Tween-80
[14] = dose: 100.0 mg/kg/injection, schedule: Q01DX009 (ip), vehicle: saline with Tween-80
[15] = dose: 200.0 mg/kg/injection, schedule: Q04DX003 (ip), vehicle: saline
[16] = dose: 400.0 mg/kg/injection, schedule: Q01DX009 (ip), vehicle: saline
[17] = dose: 400.0 mg/kg/injection, schedule: Q04DX003 (ip), vehicle: saline

NCCc1cnc2ccccc2n1
T/C (dose: 18.0 mg/kg/injection, schedule: Q01DX009 (ip), vehicle: saline): 96 % of control
T/C [1]: 100 % of control
T/C (dose: 25.0 mg/kg/injection, schedule: Q04DX003 (ip), vehicle: saline): 100 % of control
T/C (dose: 37.0 mg/kg/injection, schedule: Q01DX009 (ip), vehicle: saline): 92 % of control
T/C [2]: 120 % of control
T/C [3]: 100 % of control
T/C [4]: 100 % of control

CC1=C(C)CC2C(=O)C=CC(=O)C2C1 (stereo not given)
T/C [5]: 95 % of control
T/C (dose: 25.0 mg/kg/injection, schedule: Q01DX009 (ip), vehicle: water): 90 % of control
T/C [6]: 113 % of control
T/C (dose: 50.0 mg/kg/injection, schedule: Q01DX009 (ip), vehicle: water): 93 % of control
T/C (dose: 50.0 mg/kg/injection, schedule: Q04DX003 (ip), vehicle: water): 113 % of control
T/C (dose: 100.0 mg/kg/injection, schedule: Q01DX009 (ip), vehicle: water): 100 % of control
T/C [7]: 105 % of control and 112 % of control

O=C1OC(c2ccccc2)=N/C1=C\c1cccc(Br)c1
T/C (dose: 50.0 mg/kg/injection, schedule: Q04DX002 (ip), vehicle: saline with Tween-80): 99 % of control
T/C (dose: 100.0 mg/kg/injection, schedule: Q04DX002 (ip), vehicle: saline with Tween-80): 105 % of control
T/C (dose: 200.0 mg/kg/injection, schedule: Q04DX002 (ip), vehicle: saline with Tween-80): 89 % of control

O=C1NC(c2cccc3ccccc23)Nc2ccc(Cl)cc21 (stereo not given)
T/C [8]: 160 % of control
T/C (dose: 75.0 mg/kg/injection, schedule: Q01DX009 (ip), vehicle: Klucel (hydroxypropylcellulose) (HPC)): 155 % of control
T/C (dose: 100.0 mg/kg/injection, schedule: Q01DX009 (ip), vehicle: Klucel (hydroxypropylcellulose) (HPC)): 111 % of control

O=S(=O)(O)O
T/C (dose: 6.25 mg/kg/injection, schedule: Q01DX009 (ip), vehicle: water): 90 % of control
T/C [9]: 124 % of control
T/C [5]: 100 % of control
T/C [6]: 90 % of control
T/C [7]: 90 % of control

CC(=N\[O-])/C(C)=N/O.CC(=N\[O-])/C(C)=N/O.CCCN.[Cl-].[Cl-].[Rh+3]
T/C (dose: 6.25 mg/kg/injection, schedule: Q01DX009 (ip), vehicle: saline): 98 % of control
T/C [10]: 110 % of control
T/C [2]: 89 % of control
T/C [11]: 94 % of control
T/C [12]: 110 % of control

COc1ccc(Cl)cc1N
T/C [13]: 95 % of control
T/C [14]: 91 % of control

O=C(O)C1C(C(=O)O)C2(Cl)C(Cl)=C(Cl)C1(Cl)C2(Cl)Cl.[Co] (stereo not given)
T/C (dose: 25.0 mg/kg/injection, schedule: Q01DX009 (ip), vehicle: Klucel (hydroxypropylcellulose) (HPC)): 100 % of control
T/C [8]: 100 % of control

CCOc1ccn(CC(=O)Nc2nccs2)c(=O)n1
T/C [10]: 104 % of control
T/C [1]: 95 % of control
T/C [2]: 104 % of control
T/C [3]: 114 % of control
T/C [11]: 104 % of control
T/C [12]: 100 % of control
T/C [15]: 106 % of control
T/C [16]: 94 % of control
T/C [17]: 97 % of control

COCCn1c2nc(=O)n(-c3ccccc3)c(=O)c-2nc2ccccc21
T/C [9]: 89 % of control
T/C (dose: 25.0 mg/kg/injection, schedule: Q01DX009 (ip), vehicle: saline with Tween-80): 114 % of control
T/C [13]: 91 % of control

O=C1OC(=O)C2C3CCC(O3)C12 (stereo not given)
T/C (dose: 0.39 mg/kg/injection, schedule: Q04DX003 (ip), vehicle: saline): 100 % of control
T/C (dose: 0.65 mg/kg/injection, schedule: Q01DX001 (ip), vehicle: saline): 104 % of control
T/C (dose: 0.78 mg/kg/injection, schedule: Q01DX009 (ip), vehicle: saline): 105 % of control
T/C (dose: 0.78 mg/kg/injection, schedule: Q04DX003 (ip), vehicle: saline): 100 % of control
T/C (dose: 1.31 mg/kg/injection, schedule: Q01DX001 (ip), vehicle: saline): 100 % of control
T/C (dose: 1.56 mg/kg/injection, schedule: Q01DX009 (ip), vehicle: saline): 100 % of control
T/C (dose: 1.56 mg/kg/injection, schedule: Q04DX003 (ip), vehicle: saline): 100 % of control
T/C (dose: 2.3 mg/kg/injection, schedule: Q04DX003 (ip), vehicle: saline): 110 % of control
T/C (dose: 2.62 mg/kg/injection, schedule: Q01DX001 (ip), vehicle: saline): 100 % of control
T/C (dose: 3.5 mg/kg/injection, schedule: Q04DX003 (ip), vehicle: saline): 115 % of control
T/C (dose: 5.2 mg/kg/injection, schedule: Q04DX003 (ip), vehicle: saline): 100 % of control
T/C (dose: 5.25 mg/kg/injection, schedule: Q01DX001 (ip), vehicle: Klucel (hydroxypropylcellulose) (HPC)): 91 % of control
T/C (dose: 5.25 mg/kg/injection, schedule: Q01DX001 (ip), vehicle: saline): 95 % of control
T/C (dose: 7.2 mg/kg/injection, schedule: Q04DX003 (ip), vehicle: saline): 100 % of control
T/C (dose: 21.0 mg/kg/injection, schedule: Q01DX001 (ip), vehicle: Klucel (hydroxypropylcellulose) (HPC)): 87 % of control

CCCCN(CCC#N)CCCC
T/C (dose: 25.0 mg/kg/injection, schedule: Q04DX003 (ip), vehicle: saline with Tween-80): 100 % of control
T/C (dose: 50.0 mg/kg/injection, schedule: Q04DX003 (ip), vehicle: saline with Tween-80): 100 % of control
T/C (dose: 100.0 mg/kg/injection, schedule: Q04DX003 (ip), vehicle: saline with Tween-80): 100 % of control

COc1cccc(N2C(N)=NC(N)=NC2(C)C)c1
T/C (dose: 9.37 mg/kg/injection, schedule: Q01DX009 (ip), vehicle: Klucel (hydroxypropylcellulose) (HPC)): 108 % of control
T/C (dose: 18.75 mg/kg/injection, schedule: Q01DX009 (ip), vehicle: Klucel (hydroxypropylcellulose) (HPC)): 93 % of control

CC(Cc1cccs1)N=Cc1cc(Br)ccc1O (stereo not given)
T/C (dose: 100.0 mg/kg/injection, schedule: Q01DX001 (ip), vehicle: saline with Tween-80): 100 % of control
T/C (dose: 200.0 mg/kg/injection, schedule: Q01DX001 (ip), vehicle: saline with Tween-80): 111 % of control
T/C (dose: 400.0 mg/kg/injection, schedule: Q01DX001 (ip), vehicle: saline with Tween-80): 109 % of control

C#CCOC(=O)NCC
T/C [11]: 100 % of control
T/C [4]: 100 % of control
T/C [12]: 115 % of control
T/C [15]: 100 % of control
T/C [16]: 115 % of control
T/C [17]: 104 % of control

O=[N+]([O-])c1ccc(N2CCCC(n3cccc3)C2)c([N+](=O)[O-])c1 (stereo not given)
T/C [13]: 109 % of control
T/C [14]: 115 % of control

Cc1ncc(CO)c(/C=N/OCc2ccc(OCc3ccccc3)cc2)c1O
T/C (dose: 50.0 mg/kg/injection, schedule: Q04DX003 (ip), vehicle: saline sonified): 100 % of control
T/C (dose: 100.0 mg/kg/injection, schedule: Q04DX003 (ip), vehicle: saline sonified): 100 % of control
T/C (dose: 200.0 mg/kg/injection, schedule: Q04DX003 (ip), vehicle: saline sonified): 95 % of control

CC1OC(=O)C(C(C)C)NC(=O)C(C(C)C)OC(=O)C(C(C)C)NC(=O)C(C)OC(=O)C(C(C)C)NC(=O)C(C(C)C)OC(=O)C(C(C)C)NC(=O)C(C)OC(=O)C(C(C)C)NC(=O)C(C(C)C)OC(=O)C(C(C)C)NC1=O (stereo not given)
T/C (dose: 3.12 mg/kg/injection, schedule: Q04DX003 (ip), vehicle: Klucel (hydroxypropylcellulose) (HPC)): 100 % of control
T/C (dose: 4.5 mg/kg/injection, schedule: Q01DX009 (ip), vehicle: saline): 162 % of control
T/C (dose: 6.25 mg/kg/injection, schedule: Q04DX003 (ip), vehicle: Klucel (hydroxypropylcellulose) (HPC)): 107 % of control
T/C (dose: 10.0 mg/kg/injection, schedule: Q01DX009 (ip), vehicle: saline): 183 % of control
T/C (dose: 12.5 mg/kg/injection, schedule: Q04DX003 (ip), vehicle: Klucel (hydroxypropylcellulose) (HPC)): 169 % of control
T/C (dose: 15.0 mg/kg/injection, schedule: Q01DX009 (ip), vehicle: saline): 177 % of control
T/C (dose: 20.0 mg/kg/injection, schedule: Q01DX009 (ip), vehicle: Klucel (hydroxypropylcellulose) (HPC)): 165 % of control

COC(=O)CCCCI
T/C (dose: 50.0 mg/kg/injection, schedule: Q01DX005 (ip), vehicle: saline with Tween-80): 105 % of control
T/C (dose: 100.0 mg/kg/injection, schedule: Q01DX005 (ip), vehicle: saline with Tween-80): 110 % of control
T/C (dose: 200.0 mg/kg/injection, schedule: Q01DX005 (ip), vehicle: saline with Tween-80): 107 % of control
